These results are taken from patent US10259810B2, “N-sulfonylated pyrazolo[3,4-b]pyridin-6-carboxamides and method of use” (AbbVie S.à.r.l., priority 2015, dated 2019).

In test [1] the target is T1, ΔF508-CFTR (Homo sapiens, UniProt P13569, DEL508-508).
T1 construct: host or cells: CFBE41o-, doxycycline-inducible
Description: CFTR cell surface levels using HRP-tagged ΔF508-CFTR expressing CFBE cells, in the presence of a co-corrector. Particulars: HRP-tagged ΔF508-CFTR CFBE cells, in the presence of 3 μM co-corrector; for EC50: read-out: EC50. In kind it is cell-based. In outline: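 Chemiluminescent read-out of surface HRP (15 min, dark) after PBS washes. Activity is normalized as 100×(sample−DMSO)/(3 μM co-corrector alone−DMSO).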

Test [2] concerns the target T1, ΔF508-CFTR. Description: CFTR cell surface levels using HRP-tagged ΔF508-CFTR expressing CFBE cells, intrinsic corrector capacity. In kind it is cell-based. On the set-up: % Activation: concentration or dose not given beside the values. Particulars: HRP-tagged ΔF508-CFTR expressing CFBE41o- cells, compound alone (intrinsic corrector capacity), 20 hours at 33° C.; for EC50: read-out: EC50. The procedure, abridged:
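Read-out: chemiluminescent HRP activity of ECL4-HRP-tagged ΔF508-CFTR at the cell surface, 15 min substrate in dark. Normalized as 100×(sample−DMSO)/(positive control−DMSO).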

The term EC50 denotes the concentration needed to bring the measured effect to its halfway point.

T1 sequence (P13569 with tags, fused parts or gaps DEL508-508): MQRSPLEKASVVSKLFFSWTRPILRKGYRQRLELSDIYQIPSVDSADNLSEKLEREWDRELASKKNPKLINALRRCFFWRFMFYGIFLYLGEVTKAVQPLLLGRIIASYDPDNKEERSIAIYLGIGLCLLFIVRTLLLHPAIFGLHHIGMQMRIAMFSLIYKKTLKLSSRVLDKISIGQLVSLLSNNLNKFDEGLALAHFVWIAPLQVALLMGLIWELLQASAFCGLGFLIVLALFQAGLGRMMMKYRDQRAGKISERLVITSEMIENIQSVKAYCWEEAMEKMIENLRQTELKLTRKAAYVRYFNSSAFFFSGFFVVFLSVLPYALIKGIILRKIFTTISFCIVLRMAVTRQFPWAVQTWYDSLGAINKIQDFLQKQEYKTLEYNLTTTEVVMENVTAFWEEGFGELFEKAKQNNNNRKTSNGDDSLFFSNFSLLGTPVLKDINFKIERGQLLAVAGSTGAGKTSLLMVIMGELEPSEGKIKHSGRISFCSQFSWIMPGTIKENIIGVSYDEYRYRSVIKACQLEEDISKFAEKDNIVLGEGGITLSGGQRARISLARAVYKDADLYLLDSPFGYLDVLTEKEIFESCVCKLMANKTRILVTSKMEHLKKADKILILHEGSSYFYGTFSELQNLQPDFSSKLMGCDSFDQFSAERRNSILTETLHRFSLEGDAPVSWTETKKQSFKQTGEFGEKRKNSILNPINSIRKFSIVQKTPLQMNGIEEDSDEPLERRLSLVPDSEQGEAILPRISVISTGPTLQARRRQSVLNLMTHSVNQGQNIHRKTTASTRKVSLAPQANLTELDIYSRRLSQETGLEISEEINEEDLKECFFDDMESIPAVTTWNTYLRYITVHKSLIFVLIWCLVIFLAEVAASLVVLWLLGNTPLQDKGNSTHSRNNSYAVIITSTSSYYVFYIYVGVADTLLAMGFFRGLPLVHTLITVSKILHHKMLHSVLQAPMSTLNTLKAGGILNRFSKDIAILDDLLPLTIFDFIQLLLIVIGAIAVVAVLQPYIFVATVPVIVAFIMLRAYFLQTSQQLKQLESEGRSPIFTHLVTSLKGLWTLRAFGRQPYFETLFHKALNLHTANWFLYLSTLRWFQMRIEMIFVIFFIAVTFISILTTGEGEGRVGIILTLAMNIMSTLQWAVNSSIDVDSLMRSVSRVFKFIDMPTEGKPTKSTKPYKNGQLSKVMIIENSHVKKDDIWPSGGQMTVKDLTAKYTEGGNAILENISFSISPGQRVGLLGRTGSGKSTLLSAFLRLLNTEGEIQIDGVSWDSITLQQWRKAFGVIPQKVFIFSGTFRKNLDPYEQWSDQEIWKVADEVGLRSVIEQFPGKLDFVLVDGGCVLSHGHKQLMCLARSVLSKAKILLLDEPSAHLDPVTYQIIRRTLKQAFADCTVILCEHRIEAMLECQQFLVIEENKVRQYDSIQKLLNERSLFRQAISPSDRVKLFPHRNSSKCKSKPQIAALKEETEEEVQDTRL

Regarding `CO[C@H]1CC[C@@H](Oc2cc(C(=O)NS(C)(=O)=O)nc3c2c(C2CCC2)nn3-c2ccccc2)CC1` [Compound 211, 3-cyclobutyl-N-(methanesulfonyl)-4-[(cis-4-methoxycyclohexyl)oxy]-1-phenyl-1H-pyrazolo[3,4-b]pyridine-6-carboxamide], the “% Activation” value was 288.3% at ΔF508-CFTR [1] and 114.4% at ΔF508-CFTR [2]. Besides, the EC50 was found to be 293 nM at ΔF508-CFTR [1] and 608 nM at ΔF508-CFTR [2].

On to `CO[C@H]1CC[C@H](Oc2cc(C(=O)NS(C)(=O)=O)nc3c2c(C2CCC2)nn3-c2ccccc2)CC1` [Compound 212, 3-cyclobutyl-N-(methanesulfonyl)-4-[(trans-4-methoxycyclohexyl)oxy]-1-phenyl-1H-pyrazolo[3,4-b]pyridine-6-carboxamide], for which the figures for the “% Activation” value at ΔF508-CFTR [1] and at ΔF508-CFTR [2] were 290.43% and 114.63%, respectively. The EC50 at ΔF508-CFTR [1] turned out to be 324 nM; on ΔF508-CFTR [2], 621 nM.

Regarding `CS(=O)(=O)NC(=O)c1cc(N2CCC(COCc3ccccc3)CC2)c2c(C3CCC3)nn(-c3ccccc3)c2n1` [Compound 213, 4-{4-[(benzyloxy)methyl]piperidin-1-yl}-3-cyclobutyl-N-(methanesulfonyl)-1-phenyl-1H-pyrazolo[3,4-b]pyridine-6-carboxamide], at ΔF508-CFTR [1], the “% Activation” value is listed as 469.6% and the EC50 was 337 nM. On ΔF508-CFTR [2], the “% Activation” value is 267.5% and the EC50 came to 546 nM.

For `CS(=O)(=O)NC(=O)c1cc(N2CC3(CCC3)C2)c2c(C3CCC3)nn(-c3ccccc3)c2n1` [Compound 214, 4-(2-azaspiro[3.3]heptan-2-yl)-3-cyclobutyl-N-(methanesulfonyl)-1-phenyl-1H-pyrazolo[3,4-b]pyridine-6-carboxamide], on ΔF508-CFTR [1], the “% Activation” value is 250.55% and the EC50 amounted to 384 nM. Moreover, at ΔF508-CFTR [2], the “% Activation” value came to 103.6% and the EC50 amounted to 1010 nM.

`CC(=O)N1CCC2CN(c3cc(C(=O)NS(C)(=O)=O)nc4c3c(C3CCC3)nn4-c3ccccc3)CCC21` (stereo not shown) [Compound 216, 4-(1-acetyloctahydro-5H-pyrrolo[3,2-c]pyridin-5-yl)-3-cyclobutyl-N-(methanesulfonyl)-1-phenyl-1H-pyrazolo[3,4-b]pyridine-6-carboxamide]: the “% Activation” value on ΔF508-CFTR [1] came to 456.1%; on ΔF508-CFTR [2], 275.67%. The EC50 at ΔF508-CFTR [1] was determined as 300 nM; on ΔF508-CFTR [2], 766 nM.

With `COC1CCN(c2cc(C(=O)NS(C)(=O)=O)nc3c2c(C(C)C)nn3-c2cccc(N3CCOCC3)n2)CC1` [Compound 217, N-(methanesulfonyl)-4-(4-methoxypiperidin-1-yl)-1-[6-(morpholin-4-yl)pyridin-2-yl]-3-(propan-2-yl)-1H-pyrazolo[3,4-b]pyridine-6-carboxamide], at ΔF508-CFTR [1], the “% Activation” value was determined as 418.27% and the EC50 is 257 nM. Also, on ΔF508-CFTR [2], the “% Activation” value is 246.77% and the EC50 was found to be 458 nM.

`COCC1CCN(c2cc(C(=O)NS(C)(=O)=O)nc3c2c(C(C)C)nn3C2CCCCC2)CC1` [Compound 218, 1-cyclohexyl-N-(methanesulfonyl)-4-[4-(methoxymethyl)piperidin-1-yl]-3-(propan-2-yl)-1H-pyrazolo[3,4-b]pyridine-6-carboxamide]: on ΔF508-CFTR [1], the “% Activation” value came to 476.9% and the EC50 was found to be 239 nM. At ΔF508-CFTR [2], the “% Activation” value worked out at 268.37% and the EC50 was 390 nM.

As for `CS(=O)(=O)NC(=O)c1cc(N2CCC(CF)CC2)c2c(C3CCC3)nn(-c3ccccc3)c2n1` [Compound 220, 3-cyclobutyl-4-[4-(fluoromethyl)piperidin-1-yl]-N-(methanesulfonyl)-1-phenyl-1H-pyrazolo[3,4-b]pyridine-6-carboxamide], on ΔF508-CFTR [1], the “% Activation” value was determined as 389.9% and the 50% effective concentration (EC50) was 208 nM. Further, on ΔF508-CFTR [2], the “% Activation” value amounted to 202.5% and the concentration giving a half-maximal response (EC50) worked out at 348 nM.

As for `CS(=O)(=O)NC(=O)c1cc(N2CCC3(CCCCC3)CC2)c2c(C3CCC3)nn(-c3ccccc3)c2n1` [Compound 222, 4-(3-azaspiro[5.5]undecan-3-yl)-3-cyclobutyl-N-(methanesulfonyl)-1-phenyl-1H-pyrazolo[3,4-b]pyridine-6-carboxamide], on ΔF508-CFTR [1], the “% Activation” value was 247.3% and the EC50 is 1790 nM. On ΔF508-CFTR [2], the “% Activation” value was found to be 65.685% and the EC50 worked out at 1420 nM.

In the case of `CCS(=O)(=O)NC(=O)c1cc(-c2ccc(N3CCOCC3)cc2)c2c(C(C)C)nn(-c3ccc(F)c(F)c3)c2n1` [Compound 223, 1-(3,4-difluorophenyl)-N-(ethanesulfonyl)-4-[4-(morpholin-4-yl)phenyl]-3-(propan-2-yl)-1H-pyrazolo[3,4-b]pyridine-6-carboxamide], at ΔF508-CFTR [1], the “% Activation” value was 438.2% and the concentration for a half-maximal effect (EC50) turned out to be 371 nM. Further, at ΔF508-CFTR [2], the “% Activation” value was found to be 258.95% and the EC50 was determined as 469 nM.

As to `CCS(=O)(=O)NC(=O)c1cc(-c2ccc(N(C)C3CCOCC3)nc2)c2c(C(C)C)nn(-c3cccc(F)c3)c2n1` [Compound 224, N-(ethanesulfonyl)-1-(3-fluorophenyl)-4-{6-[methyl(oxan-4-yl)amino]pyridin-3-yl}-3-(propan-2-yl)-1H-pyrazolo[3,4-b]pyridine-6-carboxamide], on ΔF508-CFTR [1], the “% Activation” value came out at 453.1% and the EC50 is 482 nM. Besides, at ΔF508-CFTR [2], the “% Activation” value worked out at 228.8% and the EC50 was found to be 544 nM.

For `CC(C)Oc1nn(-c2ccccc2)c2nc(C(=O)NS(=O)(=O)C3CC3)cc(-c3ccc(N4CCOCC4)cc3)c12` [Compound 225, N-(cyclopropanesulfonyl)-4-[4-(morpholin-4-yl)phenyl]-1-phenyl-3-[(propan-2-yl)oxy]-1H-pyrazolo[3,4-b]pyridine-6-carboxamide], on ΔF508-CFTR [1], the “% Activation” value came to 427.95% and the EC50 stood at 579 nM. On ΔF508-CFTR [2], the “% Activation” value was found to be 215.35% and the EC50 was determined as 456 nM.

As to `CC(C)c1nn(-c2ccnc(N3CCOCC3)c2)c2nc(C(=O)NS(C)(=O)=O)cc(-c3ccc(N4CCC(C#N)CC4)nc3)c12` [Compound 227, 4-[6-(4-cyanopiperidin-1-yl)pyridin-3-yl]-N-(methanesulfonyl)-1-[2-(morpholin-4-yl)pyridin-4-yl]-3-(propan-2-yl)-1H-pyrazolo[3,4-b]pyridine-6-carboxamide], the “% Activation” value at ΔF508-CFTR [1] came to 378.2%; at ΔF508-CFTR [2], 216.8%. In addition, the EC50 came to 307 nM on ΔF508-CFTR [1] and 449 nM on ΔF508-CFTR [2].

As for `COCCS(=O)(=O)NC(=O)c1cc(-c2ccc(OC)cc2)c2c(C)nn(CC(C)C)c2n1` [Compound 231, N-(2-methoxyethanesulfonyl)-4-(4-methoxyphenyl)-3-methyl-1-(2-methylpropyl)-1H-pyrazolo[3,4-b]pyridine-6-carboxamide], on ΔF508-CFTR [1], the “% Activation” value is given as 329.9% and the 50% effective concentration (EC50) turned out to be 518 nM. On ΔF508-CFTR [2], the “% Activation” value was found to be 162.9% and the EC50 came to 939 nM.

As to `COCCS(=O)(=O)NC(=O)c1cc(-c2ccc(N3CCOCC3)cc2)c2c(C(C)C)nn(C3CCOC3)c2n1` (stereo not shown) [Compound 232, N-(2-methoxyethanesulfonyl)-4-[4-(morpholin-4-yl)phenyl]-1-(oxolan-3-yl)-3-(propan-2-yl)-1H-pyrazolo[3,4-b]pyridine-6-carboxamide], the “% Activation” value at ΔF508-CFTR [1] is 199.75%; on ΔF508-CFTR [2], 71.64%. For the same compound, the EC50 is 1730 nM on ΔF508-CFTR [1] and 1680 nM on ΔF508-CFTR [2].

As for `COCCS(=O)(=O)NC(=O)c1cc(-c2ccc(N3CCOCC3)cc2)c2cnn(-c3ccccc3)c2n1` [Compound 233, N-(2-methoxyethanesulfonyl)-4-[4-(morpholin-4-yl)phenyl]-1-phenyl-1H-pyrazolo[3,4-b]pyridine-6-carboxamide], at ΔF508-CFTR [1], the “% Activation” value is 206.57% and the 50% effective concentration (EC50) amounted to 1930 nM. In addition, on ΔF508-CFTR [2], the “% Activation” value came to 58.34% and the EC50 is 2440 nM.

For `COCCS(=O)(=O)NC(=O)c1cc(-c2ccc(OC)cc2)c2c(C)nn(C(C)C)c2n1` [Compound 234, N-(2-methoxyethanesulfonyl)-4-(4-methoxyphenyl)-3-methyl-1-(propan-2-yl)-1H-pyrazolo[3,4-b]pyridine-6-carboxamide], at ΔF508-CFTR [1], the “% Activation” value came out at 128.3% and the EC50 is over 10000 nM. Also, at ΔF508-CFTR [2], the “% Activation” value amounted to 17.89% and the EC50 was over 10000 nM.

`COCCS(=O)(=O)NC(=O)c1cc(-c2ccc(N3CCOCC3)cc2)c2c(C)nn(C3CC3)c2n1` [Compound 235, 1-cyclopropyl-N-(2-methoxyethanesulfonyl)-3-methyl-4-[4-(morpholin-4-yl)phenyl]-1H-pyrazolo[3,4-b]pyridine-6-carboxamide]: the “% Activation” value at ΔF508-CFTR [1] is reported as 257.55%; on ΔF508-CFTR [2], 102.76%. Besides, the EC50 is 2490 nM on ΔF508-CFTR [1] and 3270 nM at ΔF508-CFTR [2].

Regarding `CS(=O)(=O)NC(=O)c1cc(OC[C@H](F)C2CCOCC2)c2c(C3CCC3)nn(-c3ccccc3)c2n1` [Compound 237, 3-cyclobutyl-4-[(2R)-2-fluoro-2-(oxan-4-yl)ethoxy]-N-(methanesulfonyl)-1-phenyl-1H-pyrazolo[3,4-b]pyridine-6-carboxamide], the “% Activation” value on ΔF508-CFTR [1] came to 264.05%; on ΔF508-CFTR [2] it was 120%. Moreover, the EC50 at ΔF508-CFTR [1] amounted to 222 nM; at ΔF508-CFTR [2] it was 453 nM.
